In ChEMBL document CHEMBL6177931, “Exploring diverse frontiers: Advancements of bioactive 4-aminoquinoline-based molecular hybrids in targeted therapeutics and beyond” (Eur J Med Chem, 2024):
Converted amounts (≈) assume the structure as drawn.

Tests used:
SMMC-7721 = test: Antiproliferative activity against human SMMC-7721 cells assessed as reduction in cell proliferation incubated for 24 hrs by MTT assay; type: functional, cell-based; settings: SMMC-7721, 24 h
HepG2 [1] = test: Antiproliferative activity against human HepG2 cells assessed as reduction in cell proliferation incubated for 24 hrs by MTT assay; type: functional, cell-based; settings: HepG2, 24 h
Huh-7 = test: Antiproliferative activity against human Huh-7 cells assessed as reduction in cell proliferation incubated for 24 hrs by MTT assay; type: functional, cell-based; settings: Huh-7, 24 h
A549 [2] = test: Cytotoxicity against human A549 cells incubated for 24 hrs by MTT assay; type: functional, cell-based; settings: A549, 24 h
Bacillus cereus = test: Antibacterial activity against Bacillus cereus NCIM-2156 incubated for 16 to 24 hrs by broth microdilution method; type: functional; settings: time 16-24 hrs
Pseudomonas aeruginosa = test: Antibacterial activity against Pseudomonas aeruginosa NCIM-2036 incubated for 16 to 24 hrs by broth microdilution method; type: functional; settings: time 16-24 hrs
Bacillus subtilis = test: Antibacterial activity against Bacillus subtilis NCIM-2063 incubated for 16 to 24 hrs by broth microdilution method; type: functional; settings: time 16-24 hrs
Escherichia coli [3] = test: Antibacterial activity against Escherichia coli NCIM-2065 incubated for 16 to 24 hrs by broth microdilution method; type: functional; settings: time 16-24 hrs
Proteus vulgaris = test: Antibacterial activity against Proteus vulgaris […] NCIM-2027 incubated for 16 to 24 hrs by broth microdilution method; type: functional; settings: time 16-24 hrs
Staphylococcus aureus [4] = test: Antibacterial activity against Staphylococcus aureus NCIM-2079 incubated for 16 to 24 hrs by broth microdilution method; type: functional; settings: time 16-24 hrs
DU-145 = test: Cytotoxicity against human DU-145 cells; type: functional, cell-based
MCF7 [5] = test: Cytotoxicity against human MCF7 cells; type: functional, cell-based
SARS-CoV = test: Antiviral activity against SARS-CoV 2019-nCoV infected in african green monkey Vero E6 cells; type: functional; settings: Severe acute respiratory syndrome-related coronavirus, Vero C1008
[6] = Inhibition of ConA-induced TNF-alpha secretion in female BALB/c mouse splenocyte incubated for 48 hrs by ELISA; type: functional, cell-based
[7] = Inhibition of ConA-induced IL-1beta secretion in female BALB/c mouse splenocyte incubated for 48 hrs by ELISA; type: functional, cell-based
[8] = Inhibition of ConA-induced IL-6 secretion in female BALB/c mouse splenocyte incubated for 48 hrs by ELISA; type: functional, cell-based
[9] = Antiproliferative activity against human AG01522 cells assessed as reduction in cell viability incubated for 24 hrs by MTT assay; type: functional, cell-based; settings: AG01522, 24 h
A549 [10] = test: Antiproliferative activity against human A549 cells assessed as reduction in cell viability incubated for 24 hrs by MTT assay; type: functional, cell-based; settings: A549, 24 h
HT-29 = test: Antiproliferative activity against human HT-29 cells assessed as reduction in cell viability incubated for 24 hrs by MTT assay; type: functional, cell-based; settings: HT-29, 24 h
MCF7 [11] = test: Antiproliferative activity against human MCF7 cells assessed as reduction in cell viability incubated for 24 hrs by MTT assay; type: functional, cell-based; settings: MCF7, 24 h
Plasmodium falciparum = test: Antiplasmodial activity against chloroquine sensitive Plasmodium falciparum NF54 incubated for 48 hrs by lactate dehydrogenase assay; type: functional, organism-based; settings: NF54, Erythrocyte
MCF7 [12] = test: Anticancer activity against human MCF7 cells; type: functional, cell-based
HeLa [13] = test: Anticancer activity against human HeLa cells; type: functional, cell-based
Cholinesterase = Cholinesterase (Equus caballus, UniProt P81908); test: Inhibition of equine serum BChE using […] as substrate measured within 2 mins
Beta-secretase 1 = Beta-secretase 1 (Homo sapiens, UniProt P56817); test: Inhibition of BACE1 (unknown origin) by FRET assay
Acetylcholinesterase = Acetylcholinesterase (Electrophorus electricus, UniProt O42275); test: Inhibition of electric eel AChE using […] as substrate measured within 2 mins
Staphylococcus aureus [14] = test: Antibacterial activity against Staphylococcus aureus ATCC 8739 incubated for 24 hrs by broth microdilution method; type: functional
SGC-7901 = test: Antiproliferative activity against human SGC-7901 cells incubated for 24 hrs by MTT assay; type: functional, cell-based; settings: SGC-7901, 24 h
Escherichia coli [15] = test: Antibacterial activity against Escherichia coli ATCC 29213 incubated for 24 hrs by broth microdilution method; type: functional
HeLa [16] = test: Antiproliferative activity against human HeLa cells incubated for 24 hrs by MTT assay; type: functional, cell-based
[17] = Cytotoxicity against human L02 cells incubated for 24 hrs by MTT assay; type: toxicity, cell-based
T-24 = test: Antiproliferative activity against human T24 cells incubated for 48 hrs by MTT assay; type: functional, cell-based; settings: T-24, 48 h
HepG2 [18] = test: Anticancer activity against human HepG2 cells incubated for 48 hrs by MTT assay; type: functional, cell-based; settings: HepG2, 48 h
NCI-H460 [19] = test: Antiproliferative activity against human NCI-H460 cells incubated for 48 hrs by MTT assay; type: functional, cell-based; settings: NCI-H460, 48 h
MGC-803 [20] = test: Antitumor activity against human MGC-803 cells xenografted in male BALB/c nude mouse assessed as suppression of tumor growth at 12 mg/kg, ip administered per 2 days relative to control; type: functional
L02 = test: Antiproliferative activity against human HL7702 cells incubated for 48 hrs by MTT assay; type: functional, cell-based; settings: L02, 48 h
MGC-803 [21] = test: Antiproliferative activity against human MGC-803 cells incubated for 48 hrs by MTT assay; type: functional, cell-based; settings: MGC-803, 48 h
MCF7 [22] = test: Antiproliferative activity against human MCF7 cells assessed as cell growth inhibition incubated for 72 hrs by MTT assay; type: functional
K562 = test: Anticancer activity against human K562 cells assessed as cell growth inhibition incubated for 72 hrs by CellTiter96 aqueous Non-Radioactive Cell Proliferation Assay; type: functional
NCI-H460 [23] = test: Anticancer activity against human NCI-H460 cells assessed as cell growth inhibition incubated for 72 hrs by MTT assay; type: functional
Coxsackievirus = test: Antiviral activity against Coxsackievirus B4 infected in human HEp-2 cells assessed as reduction in virus-induced cytopathic effect incubated for 3 to 10 days by MTS assay; type: functional, organism-based; settings: B4, HEp-2
[24] = Anticancer activity against human DND41 cells assessed as cell growth inhibition incubated for 72 hrs by CellTiter96 aqueous Non-Radioactive Cell Proliferation Assay; type: functional
[25] = Cytotoxicity against African green monkey Vero cells assessed as reduction in cell viability incubated for 3 to 10 days by MTS assay; type: toxicity, cell-based; settings: chlorocebus sabaeus, time 3-10 day
HL-60 = test: Anticancer activity against human HL-60 cells assessed as cell growth inhibition incubated for 72 hrs by CellTiter96 aqueous Non-Radioactive Cell Proliferation Assay; type: functional
HCT-116 = test: Anticancer activity against human HCT-116 cells assessed as cell growth inhibition incubated for 72 hrs by MTT assay; type: functional
LN-229 = test: Anticancer activity against human LN-229 cells assessed as cell growth inhibition by MTS assay; type: functional
Z-138 = test: Anticancer activity against human Z138 cells assessed as cell growth inhibition incubated for 72 hrs by CellTiter96 aqueous Non-Radioactive Cell Proliferation Assay; type: functional
Zika virus = test: Antiviral activity against Zika virus infected in African green monkey Vero cells assessed as reduction in virus-induced cytopathic effect incubated for 3 to 10 days by MTS assay; type: functional, organism-based
[26] = Cytotoxicity against human HEp-2 cells assessed as reduction in cell viability incubated for 3 to 10 days by MTS assay; type: toxicity, cell-based; settings: time 3-10 day
CAPAN-1 = test: Anticancer activity against human CAPAN-1 cells assessed as cell growth inhibition by MTS assay; type: functional
[27] = molecular target: Cholinesterases; ACHE & BCHE (Homo sapiens) (UniProt P06276+P22303); test: Selectivity ratio of IC50 for inhibition of human BchE to IC50 for inhibition of recombinant human AchE; type: protein assay
Sequence of Cholinesterases; ACHE & BCHE (Homo sapiens) (P06276 whole entry, looked up): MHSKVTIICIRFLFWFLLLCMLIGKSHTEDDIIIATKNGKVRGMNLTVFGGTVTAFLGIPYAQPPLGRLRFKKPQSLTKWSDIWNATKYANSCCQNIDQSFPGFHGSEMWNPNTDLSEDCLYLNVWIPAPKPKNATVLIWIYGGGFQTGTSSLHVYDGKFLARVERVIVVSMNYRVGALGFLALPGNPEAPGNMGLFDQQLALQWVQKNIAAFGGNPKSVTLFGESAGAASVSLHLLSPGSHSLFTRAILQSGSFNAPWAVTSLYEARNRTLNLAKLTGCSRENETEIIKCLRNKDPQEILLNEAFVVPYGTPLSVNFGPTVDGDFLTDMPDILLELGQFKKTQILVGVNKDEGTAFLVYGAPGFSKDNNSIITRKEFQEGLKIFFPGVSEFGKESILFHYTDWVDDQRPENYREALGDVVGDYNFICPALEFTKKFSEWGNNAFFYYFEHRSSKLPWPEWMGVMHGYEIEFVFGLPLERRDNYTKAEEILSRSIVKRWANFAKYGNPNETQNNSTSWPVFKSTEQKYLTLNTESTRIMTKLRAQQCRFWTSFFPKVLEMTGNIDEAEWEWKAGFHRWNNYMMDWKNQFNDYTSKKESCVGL
Sequence of Cholinesterases; ACHE & BCHE (Homo sapiens) (P22303 whole entry, looked up): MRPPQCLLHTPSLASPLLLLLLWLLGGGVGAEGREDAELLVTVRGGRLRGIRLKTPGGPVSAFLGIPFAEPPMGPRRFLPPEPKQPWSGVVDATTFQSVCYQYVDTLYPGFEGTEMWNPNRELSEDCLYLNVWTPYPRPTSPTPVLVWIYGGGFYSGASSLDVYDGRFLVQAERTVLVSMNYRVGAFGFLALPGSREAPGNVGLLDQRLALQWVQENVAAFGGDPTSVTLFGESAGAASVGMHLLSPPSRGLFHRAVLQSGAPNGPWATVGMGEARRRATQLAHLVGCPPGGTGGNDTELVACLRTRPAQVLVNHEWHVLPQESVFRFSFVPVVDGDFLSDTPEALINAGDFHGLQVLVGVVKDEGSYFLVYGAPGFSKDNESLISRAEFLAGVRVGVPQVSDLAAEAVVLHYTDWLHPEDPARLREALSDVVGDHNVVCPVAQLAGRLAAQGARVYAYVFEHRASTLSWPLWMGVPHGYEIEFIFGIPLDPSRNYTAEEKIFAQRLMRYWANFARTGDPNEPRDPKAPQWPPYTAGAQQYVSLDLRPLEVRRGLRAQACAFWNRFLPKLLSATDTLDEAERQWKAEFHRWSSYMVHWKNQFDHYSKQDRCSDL

Sequence of Cholinesterase (P81908 whole entry): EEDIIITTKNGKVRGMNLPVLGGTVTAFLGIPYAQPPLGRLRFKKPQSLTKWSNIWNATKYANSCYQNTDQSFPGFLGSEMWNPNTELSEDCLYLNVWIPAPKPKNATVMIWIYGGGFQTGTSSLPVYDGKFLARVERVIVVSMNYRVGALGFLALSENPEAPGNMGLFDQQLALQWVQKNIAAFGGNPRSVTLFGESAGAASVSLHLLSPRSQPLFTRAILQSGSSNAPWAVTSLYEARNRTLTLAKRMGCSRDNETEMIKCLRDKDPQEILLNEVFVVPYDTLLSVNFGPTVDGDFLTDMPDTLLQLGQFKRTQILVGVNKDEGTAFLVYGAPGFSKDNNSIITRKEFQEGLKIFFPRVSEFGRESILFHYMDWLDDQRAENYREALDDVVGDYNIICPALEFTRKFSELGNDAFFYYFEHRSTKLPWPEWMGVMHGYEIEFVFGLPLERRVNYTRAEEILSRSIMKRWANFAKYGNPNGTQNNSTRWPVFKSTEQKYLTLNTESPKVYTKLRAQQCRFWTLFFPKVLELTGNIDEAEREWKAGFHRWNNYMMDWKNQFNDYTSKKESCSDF
Sequence of Beta-secretase 1 (P56817 whole entry): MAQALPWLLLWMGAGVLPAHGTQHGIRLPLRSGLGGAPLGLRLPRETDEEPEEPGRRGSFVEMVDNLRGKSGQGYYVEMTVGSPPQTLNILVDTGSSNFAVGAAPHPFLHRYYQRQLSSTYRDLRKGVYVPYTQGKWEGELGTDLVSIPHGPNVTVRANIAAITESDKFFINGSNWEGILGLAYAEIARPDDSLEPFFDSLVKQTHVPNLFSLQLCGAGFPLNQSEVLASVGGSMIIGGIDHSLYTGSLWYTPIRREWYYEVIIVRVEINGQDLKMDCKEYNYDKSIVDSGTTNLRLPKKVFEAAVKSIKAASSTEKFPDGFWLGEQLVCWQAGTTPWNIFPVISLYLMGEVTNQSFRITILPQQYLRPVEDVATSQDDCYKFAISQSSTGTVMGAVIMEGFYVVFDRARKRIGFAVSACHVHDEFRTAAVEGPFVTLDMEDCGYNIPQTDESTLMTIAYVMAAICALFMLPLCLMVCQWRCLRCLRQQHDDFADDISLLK
Sequence of Acetylcholinesterase (O42275 whole entry): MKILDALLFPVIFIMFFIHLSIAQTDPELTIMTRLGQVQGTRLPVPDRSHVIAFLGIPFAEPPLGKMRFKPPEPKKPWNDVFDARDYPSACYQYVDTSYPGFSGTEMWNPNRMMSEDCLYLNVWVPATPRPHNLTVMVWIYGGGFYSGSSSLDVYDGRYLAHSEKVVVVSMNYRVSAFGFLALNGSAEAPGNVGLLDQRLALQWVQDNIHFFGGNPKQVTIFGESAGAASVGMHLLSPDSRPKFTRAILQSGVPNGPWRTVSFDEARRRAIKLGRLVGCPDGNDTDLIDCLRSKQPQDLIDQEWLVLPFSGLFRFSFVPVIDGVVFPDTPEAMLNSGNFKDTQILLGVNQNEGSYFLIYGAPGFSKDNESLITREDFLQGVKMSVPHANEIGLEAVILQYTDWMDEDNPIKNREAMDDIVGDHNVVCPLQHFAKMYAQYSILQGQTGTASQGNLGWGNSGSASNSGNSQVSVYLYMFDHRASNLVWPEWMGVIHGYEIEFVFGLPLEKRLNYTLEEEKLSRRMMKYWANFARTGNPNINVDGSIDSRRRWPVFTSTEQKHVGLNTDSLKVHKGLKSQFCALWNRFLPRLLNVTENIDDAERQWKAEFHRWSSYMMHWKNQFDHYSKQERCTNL

## O=C(N/N=C/c1cc(O)ccc1O)c1ccc(Nc2ccnc3ccccc23)cc1
SMMC-7721
  IC50: > 50 µM
HepG2 [1]
  IC50: 23.7 µM
Huh-7
  IC50: 18.6 µM

## Cc1cccc2c(Nc3cccc4ncccc34)cc(Cl)nc12
A549 [2]
  IC50: 29.4 µM

## O=[N+]([O-])c1ccc(Nc2nc(NC(=S)NNc3ccnc4cc(Cl)ccc34)nc(Nc3ccc([N+](=O)[O-])cc3)n2)cc1
Bacillus cereus
  MIC: 12.5 µM (≈ 7.55 µg/mL)
Pseudomonas aeruginosa
  MIC: 3.12 µM (≈ 1.88 µg/mL)
Bacillus subtilis
  MIC: 25 µM (≈ 15.1 µg/mL)
Escherichia coli [3]
  MIC: 12.5 µM (≈ 7.55 µg/mL)
Proteus vulgaris
  MIC: 3.12 µM (≈ 1.88 µg/mL)
Staphylococcus aureus [4]
  MIC: 3.12 µM (≈ 1.88 µg/mL)

## CC1(C)CC[C@]2(C(=O)O)CC[C@]3(C)C(=CC[C@@H]4[C@@]5(C)CC[C@H](O)C(C)(C)[C@@H]5CC[C@]43C)[C@@H]2C1 [OLEANOLIC_ACID]
DU-145
  IC50: > 200 µM
MCF7 [5]
  IC50: > 200 µM

## CCN(CC)CCCC(C)Nc1ccnc2cc(Cl)ccc12 (configuration not stated) [CHLOROQUINE]
SARS-CoV
  EC90: 6.9 µM
[6]
  IC50: 35 µM
[7]
  IC50: 2720 nM
[8]
  IC50: 14.6 µM

## O=c1cc(CCl)n(CCCNc2ccnc3cc(Cl)ccc23)cc1OCc1ccccc1
[9]
  IC50: 2870 nM
A549 [10]
  IC50: 810 nM
HT-29
  IC50: 1410 nM
MCF7 [11]
  IC50: 1260 nM

## O=C(/C=C/c1ccccc1Br)c1ccc(S(=O)(=O)NCCCNc2ccnc3cc(Cl)ccc23)cc1
Plasmodium falciparum
  IC50: 100 nM

## C[C@H]1[C@H](C)CC[C@]2(C(=O)OCCNc3ccnc4cc(Cl)ccc34)CC[C@]3(C)C(=CC[C@@H]4[C@@]5(C)CC[C@H](O)C(C)(C)[C@@H]5CC[C@]43C)[C@H]12
MCF7 [12]
  IC50: 48.2 µg/mL (≈ 72.8 µM)
HeLa [13]
  IC50: 105 µg/mL (≈ 158 µM)

## Nc1c2c(nc3c1C(c1cccc([N+](=O)[O-])c1)C1=C(O3)C(=O)c3ccccc3C1=O)CCCC2 (configuration not stated)
Cholinesterase
  IC50: 6.03 µM
Beta-secretase 1
  IC50: 19.6 µM
Acetylcholinesterase
  IC50: 860 nM

## CCC[n+]1cc(C(=O)OCC)c(Nc2ccc(OCc3ccccc3)cc2)c2cc3c(cc21)OCO3
Staphylococcus aureus [14]
  MIC: 3.12 µM
SGC-7901
  IC50: 17.6 µM
Escherichia coli [15]
  MIC: 3.12 µM
A549 [10]
  IC50: 5180 nM
HeLa [16]
  IC50: 7.62 µM
[17]
  IC50 at 24 h: 54.5 µM

## CN(C)CCCNc1c(-c2nc3ccccc3s2)cnc2ccccc12
T-24
  IC50: 3.17 µM
HepG2 [18]
  IC50: 4.88 µM
NCI-H460 [19]
  IC50: 3.22 µM
MGC-803 [20]
  Activity: 42.4%
L02
  IC50: 10.9 µM
MGC-803 [21]
  IC50: 2200 nM

## C/C(=C\C(=O)NCCCCNc1cc(C(F)(F)F)nc2c(C(F)(F)F)cccc12)C(=O)NCCCCNc1cc(C(F)(F)F)nc2c(C(F)(F)F)cccc12
MCF7 [22]
  GI50: 700 nM
K562
  GI50: 8.6 µM
NCI-H460 [23]
  GI50: 3000 nM
Coxsackievirus
  EC50: 850 nM
[24]
  GI50: 7.9 µM
[25]
  CC50: 10 µM
HL-60
  GI50: 2600 nM
HCT-116
  GI50: 2400 nM
LN-229
  GI50: 2400 nM
Z-138
  GI50: 6.9 µM
Zika virus
  EC50: 850 nM
[26]
  CC50: 6.7 µM
CAPAN-1
  GI50: 2300 nM

## Clc1ccc2c(Nc3cccc4c(NCCC56CC7CC(CC(C7)C5)C6)cccc34)ccnc2c1
[27]
  Ratio IC50: 5.8
